Laboratory results reported in ChEMBL document CHEMBL5055676, “Novel methyllycaconitine analogues selective for the α4β2 over α7 nicotinic acetylcholine receptors” (Bioorg Med Chem, 2021).
pIC50: −log10 of the molar value. Calls of active or inactive are those of the source. The rule behind the calls is not given here.

How the values were obtained:
[1] = target: Neuronal acetylcholine receptor; alpha4/beta2 (Rattus norvegicus, UniProt P09483+P12390); experiment: Inhibition of rat alpha4beta2 nAChR expressed in Xenopus laevis oocytes assessed as inhibition of acetylcholine-elicited current response measured at holding potential of -60 mV by two-electrode voltage-clamp method; type: cell-based, Oocyte
[2] = target: Neuronal acetylcholine receptor subunit alpha-7 (Rattus norvegicus, UniProt Q05941); experiment: Inhibition of rat alpha7 nAChR expressed in Xenopus laevis oocytes assessed as inhibition of acetylcholine-elicited current response measured at holding potential of -60 mV by two-electrode voltage-clamp method; type: cell-based, Oocyte
[3] = target: T1, Neuronal acetylcholine receptor; alpha4/beta2 (Homo sapiens, UniProt P17787+P43681); experiment: Inhibition of human (alpha4)2(beta2)3 nAChR expressed in Xenopus laevis oocytes assessed as inhibition of acetylcholine-induced current response at 10 uM pretreated for 30 secs followed by co-application with acetylcholine measured at holding potential of -60 mV by two-electrode voltage-clamp method; type: cell-based; settings: Oocyte, time 30.0 sec
[4] = target: T1, Neuronal acetylcholine receptor; alpha4/beta2; experiment: Inhibition of human (alpha4)3(beta2)2 nAChR expressed in Xenopus laevis oocytes assessed as inhibition of acetylcholine-induced current response at 10 uM pretreated for 30 secs followed by co-application with acetylcholine measured at holding potential of -60 mV by two-electrode voltage-clamp method; type: cell-based; settings: Oocyte, time 30.0 sec
[5] = target: T1, Neuronal acetylcholine receptor; alpha4/beta2; experiment: Inhibition of human (alpha4)2(beta2)3 nAChR expressed in Xenopus laevis oocytes assessed as inhibition of acetylcholine-induced current response in presence of 3 uM acetylcholine by two-electrode voltage-clamp method; type: cell-based, Oocyte; settings: for logIC50: Oocyte
[6] = target: T1, Neuronal acetylcholine receptor; alpha4/beta2; experiment: Non-competitive antagonist activity at human (alpha4)3(beta2)2 nAChR expressed in Xenopus laevis oocytes decrease in acetylcholine-induced maximum current with non-significant change in Ach potency at IC50 pretreated for 30 secs followed by co-application with acetylcholine measured at holding potential of -60 mV by two-electrode voltage-clamp method; type: cell-based; settings: Oocyte, time 30.0 sec
[7] = target: T1, Neuronal acetylcholine receptor; alpha4/beta2; experiment: Inhibition of human (alpha4)3(beta2)2 nAChR expressed in Xenopus laevis oocytes assessed as inhibition of acetylcholine-induced current response in presence of 100 uM acetylcholine by two-electrode voltage-clamp method; type: cell-based, Oocyte; settings: for logIC50: Oocyte

T1 sequence (P17787 whole entry): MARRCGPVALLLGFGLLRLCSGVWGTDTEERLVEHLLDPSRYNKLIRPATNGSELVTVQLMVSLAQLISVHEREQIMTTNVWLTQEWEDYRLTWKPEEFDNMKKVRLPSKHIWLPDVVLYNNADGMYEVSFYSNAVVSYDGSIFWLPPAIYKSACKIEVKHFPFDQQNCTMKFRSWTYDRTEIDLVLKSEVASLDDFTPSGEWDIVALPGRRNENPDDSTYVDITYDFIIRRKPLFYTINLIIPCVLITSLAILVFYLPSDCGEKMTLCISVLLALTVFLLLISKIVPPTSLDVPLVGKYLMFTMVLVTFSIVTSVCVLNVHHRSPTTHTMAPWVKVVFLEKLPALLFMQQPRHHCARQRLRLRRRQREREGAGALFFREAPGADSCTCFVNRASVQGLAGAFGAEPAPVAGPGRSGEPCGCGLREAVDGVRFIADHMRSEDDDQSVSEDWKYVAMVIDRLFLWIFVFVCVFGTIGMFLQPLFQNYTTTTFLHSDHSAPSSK
T1 sequence (P43681 whole entry): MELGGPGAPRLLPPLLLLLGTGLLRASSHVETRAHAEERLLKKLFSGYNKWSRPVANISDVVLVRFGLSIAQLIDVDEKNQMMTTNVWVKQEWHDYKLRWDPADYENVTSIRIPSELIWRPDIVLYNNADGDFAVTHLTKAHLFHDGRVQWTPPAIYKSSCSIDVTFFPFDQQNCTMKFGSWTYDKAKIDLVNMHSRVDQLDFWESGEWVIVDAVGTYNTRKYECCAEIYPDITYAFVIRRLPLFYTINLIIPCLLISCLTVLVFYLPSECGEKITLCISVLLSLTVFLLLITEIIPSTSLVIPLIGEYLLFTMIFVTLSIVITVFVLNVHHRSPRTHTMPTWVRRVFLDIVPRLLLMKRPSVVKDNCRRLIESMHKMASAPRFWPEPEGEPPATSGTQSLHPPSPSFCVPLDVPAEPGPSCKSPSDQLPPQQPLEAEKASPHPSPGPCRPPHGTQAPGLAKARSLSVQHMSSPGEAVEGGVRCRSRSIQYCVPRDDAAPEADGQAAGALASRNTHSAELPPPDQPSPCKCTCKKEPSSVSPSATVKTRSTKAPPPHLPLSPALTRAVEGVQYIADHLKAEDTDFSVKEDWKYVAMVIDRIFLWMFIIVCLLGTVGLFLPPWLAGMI
Sequence of Neuronal acetylcholine receptor; alpha4/beta2 (Rattus norvegicus, UniProt P09483+P12390) (P09483 whole entry): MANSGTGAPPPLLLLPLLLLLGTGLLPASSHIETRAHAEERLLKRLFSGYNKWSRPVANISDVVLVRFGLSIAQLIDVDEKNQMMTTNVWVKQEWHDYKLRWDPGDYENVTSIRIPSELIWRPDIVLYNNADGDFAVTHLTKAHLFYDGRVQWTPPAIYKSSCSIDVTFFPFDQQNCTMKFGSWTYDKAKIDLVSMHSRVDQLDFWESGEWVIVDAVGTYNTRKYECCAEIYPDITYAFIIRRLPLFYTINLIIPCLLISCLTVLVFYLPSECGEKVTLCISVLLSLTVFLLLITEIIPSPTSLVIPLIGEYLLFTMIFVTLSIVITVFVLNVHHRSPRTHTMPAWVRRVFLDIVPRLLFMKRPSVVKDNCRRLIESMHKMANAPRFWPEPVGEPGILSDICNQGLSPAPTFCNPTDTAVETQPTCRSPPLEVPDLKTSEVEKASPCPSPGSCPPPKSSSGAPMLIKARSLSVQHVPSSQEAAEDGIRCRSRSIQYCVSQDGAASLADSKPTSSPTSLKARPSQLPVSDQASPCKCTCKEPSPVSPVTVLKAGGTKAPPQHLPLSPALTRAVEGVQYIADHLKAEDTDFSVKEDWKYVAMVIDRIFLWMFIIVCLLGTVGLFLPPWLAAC
Sequence of Neuronal acetylcholine receptor; alpha4/beta2 (Rattus norvegicus, UniProt P09483+P12390) (P12390 whole entry): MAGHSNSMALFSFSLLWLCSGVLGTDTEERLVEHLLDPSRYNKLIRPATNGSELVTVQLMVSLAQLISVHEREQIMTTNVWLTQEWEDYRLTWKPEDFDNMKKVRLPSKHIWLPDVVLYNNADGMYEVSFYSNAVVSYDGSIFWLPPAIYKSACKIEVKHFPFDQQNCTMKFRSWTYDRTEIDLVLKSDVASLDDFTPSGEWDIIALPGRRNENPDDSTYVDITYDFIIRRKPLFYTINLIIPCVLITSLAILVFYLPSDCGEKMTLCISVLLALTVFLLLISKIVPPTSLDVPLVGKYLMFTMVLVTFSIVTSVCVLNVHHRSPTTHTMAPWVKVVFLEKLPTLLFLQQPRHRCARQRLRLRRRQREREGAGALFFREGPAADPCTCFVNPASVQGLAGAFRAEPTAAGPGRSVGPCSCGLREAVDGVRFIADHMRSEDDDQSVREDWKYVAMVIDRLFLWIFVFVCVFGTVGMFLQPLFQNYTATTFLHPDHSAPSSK
Sequence of Neuronal acetylcholine receptor subunit alpha-7 (Q05941 whole entry): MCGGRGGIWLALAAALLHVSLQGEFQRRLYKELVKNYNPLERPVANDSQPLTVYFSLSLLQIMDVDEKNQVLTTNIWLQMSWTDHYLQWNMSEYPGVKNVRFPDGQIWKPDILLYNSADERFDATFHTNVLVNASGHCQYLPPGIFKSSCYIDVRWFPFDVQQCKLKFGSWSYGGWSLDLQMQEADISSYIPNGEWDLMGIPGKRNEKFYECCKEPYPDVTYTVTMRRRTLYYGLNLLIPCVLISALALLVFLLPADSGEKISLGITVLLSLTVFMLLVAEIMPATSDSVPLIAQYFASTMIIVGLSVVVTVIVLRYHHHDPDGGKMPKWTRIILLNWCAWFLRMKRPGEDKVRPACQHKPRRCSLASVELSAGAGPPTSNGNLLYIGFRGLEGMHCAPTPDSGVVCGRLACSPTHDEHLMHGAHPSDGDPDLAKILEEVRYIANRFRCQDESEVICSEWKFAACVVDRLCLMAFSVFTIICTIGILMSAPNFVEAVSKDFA

Row | inhibition [4] | SMILES | inhibition [3] | also measured
1 | 60% | C=C1[C@@H]2CCC[C@@]1(COC(=O)c1ccccc1-c1cncc(NC(C)=O)c1)CN(CC)C2 | Active | –
2 | Active | C=C1[C@@H]2CCC[C@@]1(COC(=O)c1ccccc1-c1cccnc1)CN(CC)C2 | – | –
3 | Active | C=C1[C@@H]2CCC[C@@]1(COC(=O)c1ccccc1-c1ccncc1)CN(CC)C2 | – | –
4 | Active | C=C1[C@@H]2CCC[C@@]1(COC(=O)c1ccccc1-c1cccc(NC(C)=O)c1)CN(CC)C2 | – | –
5 | 60% | C=C1[C@@H]2CCC[C@@]1(COC(=O)c1ccccc1-c1ccnc(NC(C)=O)c1)CN(CC)C2 | Active | –
6 | 50% | C=C1[C@@H]2CCC[C@@]1(COC(=O)c1ccccc1-c1ccccn1)CN(CC)C2 | Active | –

More lines, now with the values behind:

Row | SMILES | inhibition [4] | inhibition [3] | also measured
7 | C=C1[C@@H]2CCC[C@@]1(COC(=O)c1ccccc1N1C(=O)CC(C)C1=O)CN(CC)C2 (stereo partly specified) | – | – | pIC50 [1]: 5.33; pIC50 [2]: 4.68
8 | C=C1[C@@H]2CCC[C@@]1(COC(=O)c1ccccc1-c1ccc(NC(C)=O)nc1)CN(CC)C2 | 60% | Active | –
9 | C=C1[C@@H]2CCC[C@@]1(COC(=O)c1ccccc1-c1ccc(NC(C)=O)cc1)CN(CC)C2 | Active | – | –
10 | C=C1[C@@H]2CCC[C@@]1(COC(=O)c1ccccc1-c1cc(NC(C)=O)ccn1)CN(CC)C2 | 80% | Active | pIC50 [5]: 4.82; logIC50 [5]: 1.2; inhibition [6]: Active; pIC50 [7]: 5.41; logIC50 [7]: 0.6
11 | CCN1C[C@]2(COC(=O)c3ccccc3N3C(=O)C[C@H](C)C3=O)CC[C@H](OC)[C@]34C1[C@@](O)([C@@H](OC)[C@H]23)[C@@]1(O)C[C@H](OC)[C@H]2C[C@@H]4[C@@H]1[C@H]2OC | 95% | Active | logIC50 [5]: -0.8; inhibition [6]: Active; logIC50 [7]: -1.1
12 | C=C1[C@@H]2CCC[C@@]1(COC(=O)c1ccccc1-c1ccccc1)CN(CC)C2 | Active | – | –
13 | C=C1[C@@H]2CCC[C@@]1(COC(=O)c1ccccc1-c1ccc(NC(C)=O)cn1)CN(CC)C2 | 60% | Active | pIC50 [5]: 4.54; logIC50 [5]: 1.5; inhibition [6]: Active; pIC50 [7]: 5.39; logIC50 [7]: 0.6
14 | C=C1[C@@H]2CCC[C@@]1(COC(=O)c1ccccc1-c1cccc(NC(C)=O)n1)CN(CC)C2 | 80% | Active | pIC50 [5]: 4.56; logIC50 [5]: 1.4; inhibition [6]: Active; pIC50 [7]: 5.31; logIC50 [7]: 0.7
